{"source": "patent US20110183889A1", "about": "“SALICYLANILIDE MODIFIED PEPTIDES FOR USE AS ORAL THERAPEUTICS” (The Regents of the University of California, priority 2007, published 2011)", "key": {"HDL function": {"test_system": "HDL function", "details": "drinking water of apoE null mice for 24 hours; D-4F 1 μg/ml, statin 0.05 mg/ml; related application U.S. Ser. No. 10/423,830; cited from earlier work"}, "[1]": {"test_system": "LDL-induced monocyte chemotactic activity in cultures of human aortic endothelial cells", "test": "HDL-inflammatory index: HDL from treated apoE null mice tested in human aortic endothelial cell cultures", "format": "in vivo", "details": "for HDL-inflammatory index, salicylanilide with D-4F or L-4F: FIG. 24, salicylanilide:peptide 10:1, peptide 5 μg by stomach tube", "protocol": "11-month-old female apoE null mice were fasted during the day. At night the mice were provided chow containing or not containing additions. […] The mice were only given one gram of chow per mouse (n=8 mice per group) so that they would consume all of the chow. In the morning after the chow was consumed the mice were bled and their plasma was sucrose cryopreserved and fractionated by FPLC and the HDL-containing fractions were tested for their ability to inhibit monocyte chemotactic activity induced by a standard control human LDL (A) in cultures of human aortic endothelial cells. The mouse HDL (C-J) was also compared to a standard human HDL (B) that was added at the same concentrations as the mouse HDL. The resulting monocyte chemotactic activity was normalized to the standard control LDL added alone (A). The results are plotted as the HDL-inflammatory index, which is the result of dividing the monocyte chemotactic activity measured for each condition by the monocyte chemotactic activity obtained by the standard control LDL added alone, which was normalized to 1.0 as described previously (Navab et al. (2004) J Lipid Res, 45: 993-1007).\nA second experiment was performed as described for the first experiment with 8 mice in each group except that the additions to the chow were different. […] As in the first experiment the mice were only given one gram of chow per mouse so that they would consume all of the chow. In the morning this second group of mice were bled and their HDL tested in the human artery wall cell culture together with the HDL from the first experiment.\nL-4F (free base) was diluted with water to give 10 μg per 100 μL of water. […] The mice were fasted and after 7 hours they were bled and their plasma was sucrose cryopreserved. The plasma was fractionated by FPLC and the HDL-containing fractions were tested for their ability to inhibit the induction of monocyte chemotactic activity by a standard control human LDL, which was added to cultures of human aortic endothelial cells. The standard control human LDL was also added by itself or with a standard control human HDL. The values obtained by the standard control human LDL alone were normalized to 1.0. The values obtained after the addition of the standard control HDL or the mouse HDL were compared to the values obtained by the standard control LDL alone to give the HDL Inflammatory Index.\nFasting was continued and the mice were bled 5 hours later and the HDL inflammatory index determined in cultures of human aortic endothelial cells as described in FIG. 8. Briefly, To determine the HDL-inflammatory index lipoproteins were added to human aortic endothelial cell cultures as described previously (Navab et al., (2005) Circulation Research 97: 524-532). A normal control human LDL was added to each well in triplicate at a final concentration of 100 μg/mL of LDL-cholesterol. A normal human HDL was added to three wells containing human LDL at a final concentration of 50 μg/mL HDL-cholesterol as a positive control. HDL from the mice at a final concentration of 50 μg/mL HDL-cholesterol was added in triplicate to other wells containing human LDL. After 8 hours of culture the supernatants were removed and monocyte chemotactic activity was determined as previously described (Navab et al. (2001) J. Lipid Res., 42: 1308-1317; Danciger et al. (2004) J. Immunol. Meth., 288: 123-124). The values obtained from wells containing the human LDL but no HDL were normalized to 1.0. The values obtained from wells containing the human LDL with either human or mouse HDL were divided by the values obtained from wells with human LDL without added HDL to give the HDL-inflammatory index as previously described (Ansell et al. (2003) Circulation 108: 2751-2756)."}, "[2]": {"test_system": "monocyte chemotactic activity in cultures of human aortic endothelial cells", "test": "LDL-inflammatory index: LDL from treated apoE null mice tested in human aortic endothelial cell cultures", "format": "in vivo", "details": "for LDL-inflammatory index, salicylanilide with D-4F or L-4F: FIG. 25, mice of FIG. 24", "source_text": "[…] to induce monocyte chemotactic activity in cultures of human aortic endothelial cells and compared to a standard control human LDL whose values were normalized to 1.0 for the LDL-inflammatory index."}, "[3]": {"details": "cited from earlier work"}, "[4]": {"test": "solubilization of niclosamide in water by L-4F", "format": "physicochemical", "details": "FIG. 13; Niclosamide 10 mg per mL in water or water with 1.0 mg/mL L-4F, homogenized, 4° C. ten days", "protocol": "The solutions were stored at 4° C. for ten days and photographed (see FIG. 13)."}, "aortic sinus lesion area": {"test_system": "aortic sinus lesion area", "test": "lesion regression in old apoE null mice, six months in chow", "format": "in vivo", "details": "FIGS. 32-34; L-4F 200 μg and niclosamide 2 mg/mouse/day in chow, pravastatin 50 μg/mouse/day, 26 weeks", "source_text": "Ninety-five female apoE null mice age 9.5 months from the UCLA breeding colony were identified. Twenty-three were sacrificed at time Zero (Group I) to establish lesion area at the start of the experiment. […] All groups received 50 micrograms/mouse/day of pravastatin in their drinking water. At the veterinarian's request because of fighting and/or ulcerative dermatitis mice were euthanized prior to the end of the experiment as follows: 6 mice from Group II; 5 mice from Group III; 4 mice from Group IV. After six months the remaining mice were sacrificed and aortic sinus lesion area was determined as described previously (Id.).\nIn still another experiments, nine and half months-old female apoE null mice were divided into four groups: Group I was sacrificed to establish base line lesion area (Time Zero). […] Group III received L-4F at 200 μg/mouse/day in rodent chow. […] Groups II-IV received pravastatin 50 μg/mouse/day in drinking water. After 26 weeks the mice were sacrificed and aortic sinus lesion area was determined."}, "[5]": {"details": "mouse, in vivo, po"}, "[6]": {"test_system": "atherosclerosis in apoE Null mice", "test": "atherosclerosis lesions (aortic sinus, en face, macrophage area), 14 weeks in chow", "format": "in vivo", "details": "FIGS. 29-31, L-4F 25 and niclosamide 250 μg/mouse/day in chow, all groups pravastatin 50 μg/mouse/day"}, "[7]": {"test_system": "LDL-induced monocyte chemotactic activity in cultures of human aortic endothelial cells", "details": "administered orally to mice; Navab et al. 2002; cited from earlier work"}, "[8]": {"test": "self-association of L-4F in aqueous environment (non-denaturing gel)", "format": "physicochemical", "details": "FIG. 39 lane 2", "source_text": "Lane 1 contains molecular weight markers (HMW)."}, "[9]": {"details": "mouse, in vivo; cited from earlier work"}, "[10]": {"target": "the molecule itself", "test": "non-denaturing gel (4-20%, coomassie blue), L-4F alone in lane 2; self-association of the peptide"}, "[11]": {"details": "FIG. 22, peptide 10 μg with or without niclosamide 10:1, ABCT pH 8.0, stomach tube, seven hours"}}, "data": [{"molecule": "CC(C)c1c(C(=O)Nc2ccccc2)c(-c2ccccc2)c(-c2ccc(F)cc2)n1CC[C@@H](O)C[C@@H](O)CC(=O)O", "note": "[atorvastatin, reference compound]", "values": [{"measurement": "HDL function", "setting": "HDL function", "result": "did not improve HDL function"}]}, {"molecule": "O=C(Nc1ccc([N+](=O)[O-])cc1Cl)c1cc(Cl)ccc1O", "note": "[Niclosamide, 5-chloro-N-(2-chloro-4-nitrophenyl)-2-hydroxybenzamide]", "values": [{"measurement": "enhancement of the ability of L-4F to render HDL anti-inflammatory", "setting": "[1]; FIG. 16, niclosamide 250 μg/day in chow, L-4F 25 μg/day in drinking water or chow, three days", "result": "greatly enhanced"}, {"measurement": "enhancement of the ability of L-4F to decrease LDL-induced monocyte chemotactic activity", "setting": "[2]; FIG. 17, niclosamide 250 μg/day in chow, L-4F 25 μg/day in drinking water or chow, three days", "result": "greatly enhanced"}, {"measurement": "water solubility", "setting": "[3]; at 20° C., ethanolamine salt in distilled water", "result": "5 to 8", "unit": "µg/mL"}, {"measurement": "solubility in acetone", "setting": "[3]", "result": "soluble"}, {"measurement": "solubility in ether, ethanol and chloroform", "setting": "[3]", "result": "sparingly soluble"}, {"measurement": "stability in tablets", "setting": "[3]; moist environments", "result": "undergoes a biodegradation"}, {"measurement": "solubility of niclosamide in aqueous solution", "setting": "[4]", "result": "relatively insoluble"}, {"measurement": "lesions in old apoE null mice versus Time Zero", "setting": "aortic sinus lesion area", "result": "neither niclosamide nor L-4F without niclosamide significantly reduced lesions"}]}, {"molecule": "Ac-DWFKAFYDKVAEKFKEAF-NH2 [D-4F]", "values": [{"measurement": "detectability in the circulation", "setting": "[5]", "result": "essentially non-detectable"}, {"measurement": "HDL function", "setting": "HDL function", "result": "did not significantly improve HDL function"}, {"measurement": "HDL-inflammatory index", "setting": "[1]; [11]", "result": "able to render apoE null mouse HDL anti-inflammatory to a degree comparable to normal human HDL"}]}, {"molecule": "O=C(Nc1ccc([N+](=O)[O-])cc1Cl)c1ccc(O)c(Cl)c1", "note": "[BP-1012]", "values": [{"measurement": "HDL-inflammatory index, salicylanilide with D-4F or L-4F", "setting": "[1]; six hours", "result": "more potent than niclosamide"}, {"measurement": "LDL-inflammatory index, salicylanilide with D-4F or L-4F", "setting": "[2]", "result": "more potent"}]}, {"molecule": "O=C(Nc1ccc([N+](=O)[O-])cc1Cl)c1ccc(Cl)cc1O", "note": "[BP-1001]", "values": [{"measurement": "HDL-inflammatory index, salicylanilide with D-4F or L-4F", "setting": "[1]; six hours", "result": "more potent than niclosamide"}, {"measurement": "LDL-inflammatory index, salicylanilide with D-4F or L-4F", "setting": "[2]", "result": "more potent"}]}, {"molecule": "Ac-DWFKAFYDKVAEKFKEAF-NH2 [L-4F, Ac-D-W-F-K-A-F-Y-D-K-V-A-E-K-F-K-E-A-F-NH2]", "values": [{"measurement": "detectability in the circulation", "setting": "[5]", "result": "essentially non-detectable"}, {"measurement": "atherosclerosis (aortic sinus lesion, en face, macrophage lesion area)", "setting": "[6]", "result": "not without niclosamide"}, {"measurement": "HDL-inflammatory index", "setting": "[1]; FIG. 8, female apoE null mice, additions to 1 g chow overnight: L-4F 2 or 10 μg, Niclosamide 8 or 100 μg", "result": "slightly but significantly improved"}, {"measurement": "HDL-inflammatory index", "setting": "[1]; [11]", "result": "only able to achieve this degree of efficacy when co-administered with niclosamide"}, {"measurement": "HDL-inflammatory index", "setting": "[1]; FIG. 37, fractions containing 10 μg L-4F or 10 μg niclosamide in ABCT by stomach tube, six hours", "result": "not effective"}, {"measurement": "protective capacity of HDL to inhibit LDL-induced monocyte chemotactic activity", "setting": "[7]", "result": "did not significantly alter"}, {"measurement": "molecular weight of micelles formed by self-association", "setting": "[8]", "result": "> 100", "unit": "kDa"}, {"measurement": "degradation after oral administration", "setting": "[9]", "result": "rapidly degraded"}, {"measurement": "lesions in old apoE null mice versus Time Zero", "setting": "aortic sinus lesion area", "result": "neither niclosamide nor L-4F without niclosamide significantly reduced lesions"}]}, {"molecule": "Ac-DWFKAFYDKVAEKFKEAF-NH2 (It self-associates into micelles; also called L-4F (free base))", "note": "[L-4F (Ac-D-W-F-K-A-F-Y-D-K-V-A-E-K-F-K-E-A-F-NH2, all L amino acids)]", "values": [{"measurement": "binding result", "setting": "[10]", "result": "binds"}]}]}
